The values that follow come from publication PMC10164568 (2023).

Molecules are shown by their SMILES.

Assay [1] relates to 3H3Md-TET (DNA, aptamer) CGGTGGTGCGGTGGTGAAACACCAAAACACCAAAA
Nature of the assay: ThT displacement fluorescence. Conditions: 10 mM Tris-HCl pH 7.4; 12.5 μM compound; ThT displaced.

Assay [2] has as its system H-BB (DNA, hairpin) ACATAATTTAATATTTATGTTAACATAAATATTAAATTATGT
Nature of the assay: UV-vis absorption shift. The note with it: 10 mM Tris-HCl pH 7.4; 2.5 μM ThT in UV-vis.

Assay [3] has as its system 6H3M0 (DNA, hairpin) TTTTTTTTTTTTTTTTTTTTTTTTTAAAAAAAAAAAAAAAAAAAAAAAAAAAAAAA
Briefly: ThT fluorescence enhancement. Conditions: 10 mM Tris-HCl pH 7.4, room temperature; 1 μM DNA, 1 μM ThT.

For `CN(C)[C@@H]1C(=O)C(C(N)=O)=C(O)[C@@]2(O)C(=O)C3=C(O)c4c(O)cccc4[C@@](C)(O)[C@H]3[C@H](O)[C@@H]12`, the binding entry in assay [1] was “weak”.

As to `C[C@H]1c2cccc(O)c2C(=O)C2=C(O)[C@]3(O)C(=O)C(C(N)=O)=C(O)[C@@H](N(C)C)[C@@H]3[C@@H](O)[C@@H]21`, the binding result in assay [1] is “weak”.

As to `Cc1ccc2c(c1)sc(-c1ccc(N(C)C)cc1)[n+]2C`, the binding entry in assay [2] and in assay [3] was “weak” in each case.
